From patent publication EP0275515B1, “Aqueous pharmaceutical composition” (DAIICHI PHARMACEUTICAL CO., LTD., priority 1986, dated 1988)

Legend:
[1] = Acute toxicity in mice (intravenous LD50); details: mouse, in vivo, read-out: acute toxicity (LD₅₀, intravenous)
Method: It is to be noted that the acute toxicity of the S-compound in mice (LD₅₀, intravenous) is 244 mg/kg.

[2] = Storage stability of aqueous solution (residual concentration); type: physicochemical; details: 0.5 w/v% aqueous solution, pH range of 3 to 10, stored at 60°C for 1 or 2 weeks

For `C[C@H]1COc2c(N3CCN(C)CC3)c(F)cc3c(=O)c(C(=O)O)cn1c23` [S-compound, S-(-)-9-fluoro-3-methyl-10-(4-methyl-1-piperazinyl)-7-oxo-2,3-dihydro-7H-pyrido[1,2,3-de][1,4]benzoxazine-6-carboxylic acid], the LD50 [1] was 244 mg/kg and the residual concentrations [2] was “stably remained without decomposition”.
